Measurements published in patent publication US6015820A, “4-Aryl-thio-pyridin-2(1H)-ones, medicines containing them and their uses in the treatment of illnesses linked to HIV” (priority 1995, dated 2000).
“Also recorded” adds a separate entry of the source.

Key:
IT of recombinant HIV-1 = molecular target: T1, IT of recombinant HIV-1 (Human immunodeficiency virus type 1 group M subtype B, UniProt P03369); assay: inhibition of the inverse transcriptase of recombinant HIV-1; type: biochemical
T1 construct: purify the IT enzyme of the recombinant HIV-1; made in house; host or cells: yeast cells transformed with the pAB 24/IT-4 vector
Method: Yeast cells transformed with the pAB 24/IT-4 vector were used to purify the IT enzyme of the recombinant HIV-1 as described by Sallafranque-Andreola et al. (1989 Eur. J. Biochem. 184, 364-374).
Incubation was carried out at 37° C. for 10 minutes in the presence of various matrix-primers.
a) Poly C-oligo dG: the reaction mixture contained a final volume of 0.05 ml, Tris-HCl 50 mM pH 8.0, MgCl2 5 mM, dithiothreitol 4 mM, 0.48 A260 /ml of poly C-oligo dG (5:1), 1.0 μCi of [^3 H]dGTP (28 Ci/mmole), dGTP 2 μM, KCl 80 mM, 1 μg of bovine serum albumin and IT 20-50 nM.
b) Poly A-oligo dT: the same conditions as in a), except that 0.48 A260 /ml of poly A-oligo dT (5:1), 0.5 μCi of [^3 H]dTTP (46 Ci/mmole), dTTP 20 μM were used.
The reactions were stopped by adding in the cold 1 ml of 10% trichloroacetic acid plus sodium pyrophosphate 0.1 M. The precipitates were filtered through nitrocellulose membranes, washed with 2% trichloroacetic acid, dried and counted in a PPO/POPOP/toluene scintillation mixture.
(§1) All the compounds were dissolved in dimethyl#sulphoxide (DMSO). The test samples were prepared in the presence of the same final concentration of DMSO. IC50 is the concentration required to inhibit the activity of the IT of the recombinant HIV-1 by 50%.

[1] = molecular target: inverse transcriptase of HIV-1 (HIV-1 M:B_ARV2/SF2, UniProt P03369); assay: inverse transcription with HIV-1 RNA as natural matrix (complementary DNA, gel); type: biochemical; conditions: FIG. 10; compound 7c 40-400 nM
Method: FIG. 10 illustrates the dose effect of compound 7c on the inhibition of the inverse transcriptase of HIV-1. The expected complementary DNA, 147 nucleotides long, is shown to the left of the gel (well 1). Wells 2 to 5 correspond to decreasing concentrations of compound 7c (well 2: 400 nM, well 3: 300 nM: well 4: 100 nM and well 5: 40 nM).
The pmCG6 plasmid containing the nucleotide fragment 1-4005 of the HIV-1 (pmal) in psP64, under the control of the promoter of the T7 bacteriophage was provided by Dr. J. L. Darlix. A strain of E.coli HB 101 (1035) recA was used for the amplification of the plasmid. After digestion of this clone with Hinc II and transcription in vitro by using the RNA T7 polymerase, RNAs were obtained from the +50 position of the pmal sequence. The transcription was carried out in vitro and the inverse transcription in the manner described by B. Bordier et al. (1992 Nucleic Acids Res. 20, 5999-6006).
as §1

isolated virion HIV-1LAI = assay: infectivity of the isolated virion after treatment with inhibitors (HT4LacZ cells); type: cell-based
Method: H9 cells chronically infected with HIV-1LAI (10^8 /ml) were cocultivated with MT4 cells (10^8 /ml) for 48 hours in an RMPI medium supplemented by 10% of calf foetal serum (CFS). The cells were then removed by centrifugation and then the supernatant liquid was filtered (0.45 μm) to remove residual cells and cell debris.
After having been incubated with the various inhibitors, the viral supernatants (200 μl) were deposited in the filtering part of a VectaSpin tube (WHATMAN) fitted with an ANAPORE membrane of porosity 0.02 μm. For 10 minutes they were subjected to centrifugation, the acceleration of which reached 6000 g at the filtering membrane. The viral residuums thereby obtained (10-15 μl ) were washed 3 times under the same conditions with 500 μl of RPMI then restored to their initial volumes with RPMI containing 10% of CFS.
The HT4LacZ-1 cells were kept in a DMEM medium (glucose 4.5 g/l) supplemented with 10% of calf foetal serum in the presence of Gentamycin (50 mg/l). These cells stemmed from Hela cells in which had been cloned, on the one hand the gene coding for the human CD4 so as to render them susceptible to infection by the HIV (Chesebro and Wehrly, 1988, J. Virol., 62, 3779-3788), and on the other hand the gene for β-Galactosidase which, placed under the dependent of the LTR of the HIV-1 served as a marker for the viral infection (Rocancourt et al. (1990) J. Virol. 1990 64-6, 2660-2688). When the virus infects such cells after its integration into the cellular genome, the production of the regulatory protein TAT activates the LTR of the HIV. The result is an activation of the gene of β-Galactosidase which leads to its production in the intracellular medium and more particularly in the nucleus. It is this protein that serves as a marker of the infection.
The evening of day 0, the HT4LacZ-1 cells were diluted at the rate of 75000 cells per ml of medium. 100 μl of this suspension was then distributed over a flat bottomed plate with 96 wells and was cultivated overnight at 37° C. (5% of CO2).
The morning of day 1, the supernatant liquid was removed by aspiration. Each well was then complemented with 200 μl of the viral supernatant dilutions to be tested. Each dilution was made in a DMEM medium (glucose 4.5 g/l) supplemented with 10% of CFS. The plates were then placed in an environment at 37° C. in the presence of 5% of CO2.
After 48 hours of culture, the supernatant liquid was aspirated, then each well was washed 3 times in PBS before being complemented with 200 μl of developing buffer (Tris-HCl 50 mM pH=8.5, ONPG 5 mg/ml β-mercapto-ethanol 7 μl/ml Triton×100 0.05%). After 4 hours of incubation at 37° C., the optical density of each well was measured.
The concentration of each of the inhibitors of the IT of the HIV-1 was adjusted to 50 mM in DMSO. The later dilutions were carried out on RPMI 1640. 2 μl of suitable dilutions of each of these inhibitors were added to 198 μl of a freshly unfrozen viral suspension. After 3 hours of incubation at ambient temperature, these suspensions were filtered on 0.02 μ VecraSpin tubes, then washed 3 times with 500 μl of RPMI 1640. The viral residuums were then adjusted to 200 μL with the culture medium (RPMI-10% CFS), then tested with regard to their infectivity on HT4LacZ cells.

For `CCc1c(C)[nH]c(=O)c([N+](=O)[O-])c1Sc1cc(C)cc(C)c1` [Compound 7c, 5-ethyl-6-methyl-3-nitro-4-(3', 5'-dimethylphenyl)thio-pyridin-2(1H)-one], the IC50 (IT of recombinant HIV-1) was 30 nM, the “effect on activity of the IT of HIV-1 in HIV-1/HIV-2 comparison” value (IT of recombinant HIV-1; FIG. 9) was “well inhibited” and the “IT inhibition according to matrix-primer couple” value (IT of recombinant HIV-1; poly C-oligo dG compared with poly A-oligo dT (FIG. 9)) was “Better inhibition was obtained in the presence of poly C-oligo dG compared with poly A-oligo dT”. The “inhibition with RNA from HIV-1 as natural matrix” value [1] was “strong inhibition”, the activity at 0.1 µM (isolated virion HIV-1LAI; Human immunodeficiency virus 1, 0.1 μM inhibitor, 3 h, 100 TCID50, compared with viral supernatant subjected to same treatments, mean of 1 to 4 experiments, read-out: Activity of the isolated virions after treatment) was 60% and the activity at 1 µM (isolated virion HIV-1LAI; Human immunodeficiency virus 1, 1 μM inhibitor, 3 h, 100 TCID50, compared with viral supernatant subjected to same treatments, mean of 1 to 4 experiments, read-out: Activity of the isolated virions after treatment) was 1%. For the same molecule, the activity at 10 µM (isolated virion HIV-1LAI; Human immunodeficiency virus 1, 10 μM inhibitor, 3 h, 100 TCID50, compared with viral supernatant subjected to same treatments, mean of 1 to 4 experiments, read-out: Activity of the isolated virions after treatment) was 0%, the inhibition in infectivity (isolated virion HIV-1LAI; incubation of 45 minutes, preliminary experiments) was “greater than 98%” and the “activity on the isolated virion (in words)” value (isolated virion HIV-1LAI; isolated virion) was “truly active on the isolated virion; also recorded: capable, after having penetrated the viral particle, of inhibiting the inverse transcriptase and of suppressing the viral infectivity”.
